In US20250382305A1 (PTC THERAPEUTICS, INC., priority 2022, published 2025):

What was measured:
[1] = tested on: Total ATXN3 (tATXN3) protein; assay: Endogenous Total ATXN3 (tATXN3) Protein Assay (MSD immunoassay of cell lysates); type: cell-based; settings: average IC50, total ATXN3 protein in cell lysate after 48 h with compound (Table 1)
Method in brief: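 Cells in DMEM/10% FBS were plated at 10,000 per well onto 7-point, 3.16-fold compound dilutions in duplicate for 48 h at 37° C, then lysed. Total ATXN3 in lysates was measured by MSD sandwich immunoassay: mouse anti-ATXN3 capture, rabbit anti-ATXN3 detection, SULFO-TAG anti-rabbit. Average IC50 was reported in star bins.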

ATXN3 pre-mRNA = assay: RT-qPCR Assay to Quantify Exon 4 Skipping in ATXN3 pre-mRNA in Cells; type: cell-based; settings: percent exon 4 skipping in ATXN3 pre-mRNA, RT-qPCR of cell lysates; average IC50
Method in brief: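 Cells plated at 10,000/well onto a 7-point, 3.16-fold DMSO dilution series (duplicates), incubated 24 h at 37 °C, then lysed. Exon 4 skipping measured by one-step RT-qPCR (48 °C RT, 40 cycles); IC50 interpolated from dose-response fit of percent skipping.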

SMILES	IC50 [1]	IC50 (ATXN3 pre-mRNA)
N[C@@H]1CCCO[C@H]1c1sc2c(NCc3ccccc3)nc(Cl)nc2c1Br [Compound 70, 6-((2R,3R)-3-aminotetrahydro-2H-pyran-2-yl)-N-benzyl-7-bromo-2-chlorothieno[3,2-d]pyrimidin-4-amine]	> 1000 nM	> 1000 nM
N[C@@H]1CCCCC[C@@H]1c1sc2c(NCc3cccs3)cc(Cl)nc2c1Br [Compound 72, 2-((1S,2R)-2-aminocycloheptyl)-3-bromo-5-chloro-N-(thiophen-2-ylmethyl)thieno[3,2-b]pyridin-7-amine]	> 1000 nM	> 1000 nM
N[C@H]1CCCCC[C@H]1c1sc2c(NCc3cccs3)cc(Cl)nc2c1Br [Compound 73, 2-((1R,2S)-2-aminocycloheptyl)-3-bromo-5-chloro-N-(thiophen-2-ylmethyl)thieno[3,2-b]pyridin-7-amine]	300 to 1000 nM	300 to 1000 nM
N[C@@H]1CCCCC[C@H]1c1sc2c(NCc3cccs3)cc(Cl)nc2c1Br [Compound 74, 2-((1R,2R)-2-aminocycloheptyl)-3-bromo-5-chloro-N-(thiophen-2-ylmethyl)thieno[3,2-b]pyridin-7-amine]	> 1000 nM	> 1000 nM
N[C@@H]1CCCCC[C@@H]1c1sc2c(NCc3cccs3)cc(Cl)nc2c1Cl [Compound 76, 2-((1S,2R)-2-aminocycloheptyl)-3,5-dichloro-N-(thiophen-2-ylmethyl)thieno[3,2-b]pyridin-7-amine]	> 1000 nM	> 1000 nM
N[C@H]1CCCCC[C@H]1c1sc2c(NCc3cccs3)cc(Cl)nc2c1Cl [Compound 77, 2-((1R,2S)-2-aminocycloheptyl)-3,5-dichloro-N-(thiophen-2-ylmethyl)thieno[3,2-b]pyridin-7-amine]	> 1000 nM	300 to 1000 nM
N[C@@H]1CCCCC[C@H]1c1sc2c(NCc3cccs3)cc(Cl)nc2c1Cl [Compound 78, 2-((1R,2R)-2-aminocycloheptyl)-3,5-dichloro-N-(thiophen-2-ylmethyl)thieno[3,2-b]pyridin-7-amine]	> 1000 nM	> 1000 nM
N[C@@H]1CCCCC[C@H]1c1cc2nc(Cl)cc(NCc3cccs3)c2s1 [Compound 80, 2-((1R,2R)-2-aminocycloheptyl)-5-chloro-N-(thiophen-2-ylmethyl)thieno[3,2-b]pyridin-7-amine]	> 1000 nM	> 1000 nM

Now from value to compound:

IC50 [1]	IC50 (ATXN3 pre-mRNA)	SMILES
300 to 1000 nM	300 to 1000 nM	N[C@@H]1CCCC[C@H]1c1sc2c(NCc3ccco3)nc(Cl)nc2c1Br [Compound 67, 6-((1R,2R)-2-aminocyclohexyl)-7-bromo-2-chloro-N-(furan-2-ylmethyl)thieno[3,2-d]pyrimidin-4-amine]
≤ 30 nM	≤ 30 nM	N[C@H]1CCCC[C@@H]1c1sc2c(NCc3ccco3)nc(Cl)nc2c1Br [Compound 68, 6-((1S,2S)-2-aminocyclohexyl)-7-bromo-2-chloro-N-(furan-2-ylmethyl)thieno[3,2-d]pyrimidin-4-amine]
30 to 300 nM	≤ 30 nM	N[C@H]1CCCO[C@@H]1c1sc2c(NCc3ccccc3)nc(Cl)nc2c1Br [Compound 69, 6-((2S,3S)-3-aminotetrahydro-2H-pyran-2-yl)-N-benzyl-7-bromo-2-chlorothieno[3,2-d]pyrimidin-4-amine]
≤ 30 nM	≤ 30 nM	Cc1c([C@H]2CCCC[C@@H]2N)sc2c(NCc3cccs3)cc(Cl)nc12 [Compound 71, 2-((1S,2S)-2-aminocyclohexyl)-5-chloro-3-methyl-N-(thiophen-2-ylmethyl)thieno[3,2-b]pyridin-7-amine]
30 to 300 nM	30 to 300 nM	N[C@H]1CCCCC[C@@H]1c1sc2c(NCc3cccs3)cc(Cl)nc2c1Br [Compound 75, 2-((1S,2S)-2-aminocycloheptyl)-3-bromo-5-chloro-N-(thiophen-2-ylmethyl)thieno[3,2-b]pyridin-7-amine]
30 to 300 nM	30 to 300 nM	N[C@H]1CCCCC[C@@H]1c1sc2c(NCc3cccs3)cc(Cl)nc2c1Cl [Compound 79, 2-((1S,2S)-2-aminocycloheptyl)-3,5-dichloro-N-(thiophen-2-ylmethyl)thieno[3,2-b]pyridin-7-amine]
